Assay results: ChEMBL document CHEMBL5346972, “Discovery of HDAC6, HDAC8, and 6/8 Inhibitors and Development of Cell-Based Drug Screening Models for the Treatment of TGF-β-Induced Idiopathic Pulmonary Fibrosis” (J Med Chem, 2023)

Assays:
NIH3T3 [1] = experiment: Antiproliferative activity against mouse NIH3T3 cells assessed as reduction in cell viability by measuring optimal working concentration incubated for 3 days by CCK-8 assay relative to control; type: functional; settings: time 3 day
NIH3T3 [2] = experiment: Antiproliferative activity against mouse NIH3T3 cells assessed as reduction in cell viability incubated for 3 days by CCK-8 assay; type: functional, cell-based; settings: NIH3T3, 72 h
Histone deacetylase 11 = target: T1, Histone deacetylase 11 (Homo sapiens, UniProt Q96DB2); experiment: Inhibition of human HDAC11 expressed in baculovirus expression system in Sf9 cells using Boc-Lys(trifluoroacetyl)-AMC fluorogenic peptide as substrate and measured after 2 hrs by fluorescence based analysis
T1 sequence (Q96DB2 whole entry): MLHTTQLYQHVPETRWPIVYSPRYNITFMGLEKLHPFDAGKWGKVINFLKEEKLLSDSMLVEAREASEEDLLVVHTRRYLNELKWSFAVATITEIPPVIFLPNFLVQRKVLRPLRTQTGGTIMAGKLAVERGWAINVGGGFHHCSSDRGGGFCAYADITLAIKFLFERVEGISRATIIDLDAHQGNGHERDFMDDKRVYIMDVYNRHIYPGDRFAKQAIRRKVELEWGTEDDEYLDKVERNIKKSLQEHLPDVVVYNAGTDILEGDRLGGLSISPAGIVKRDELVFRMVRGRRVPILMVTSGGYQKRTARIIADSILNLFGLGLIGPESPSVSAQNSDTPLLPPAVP

Histone deacetylase 9 = Histone deacetylase 9 (Homo sapiens, UniProt Q9UKV0); experiment: Inhibition of human HDAC9 expressed in baculovirus expression system in Sf9 cells using Boc-Lys(trifluoroacetyl)-AMC fluorogenic peptide as substrate and measured after 2 hrs by fluorescence based analysis
Sequence of Histone deacetylase 9 (Q9UKV0 whole entry, the tested form may be a part): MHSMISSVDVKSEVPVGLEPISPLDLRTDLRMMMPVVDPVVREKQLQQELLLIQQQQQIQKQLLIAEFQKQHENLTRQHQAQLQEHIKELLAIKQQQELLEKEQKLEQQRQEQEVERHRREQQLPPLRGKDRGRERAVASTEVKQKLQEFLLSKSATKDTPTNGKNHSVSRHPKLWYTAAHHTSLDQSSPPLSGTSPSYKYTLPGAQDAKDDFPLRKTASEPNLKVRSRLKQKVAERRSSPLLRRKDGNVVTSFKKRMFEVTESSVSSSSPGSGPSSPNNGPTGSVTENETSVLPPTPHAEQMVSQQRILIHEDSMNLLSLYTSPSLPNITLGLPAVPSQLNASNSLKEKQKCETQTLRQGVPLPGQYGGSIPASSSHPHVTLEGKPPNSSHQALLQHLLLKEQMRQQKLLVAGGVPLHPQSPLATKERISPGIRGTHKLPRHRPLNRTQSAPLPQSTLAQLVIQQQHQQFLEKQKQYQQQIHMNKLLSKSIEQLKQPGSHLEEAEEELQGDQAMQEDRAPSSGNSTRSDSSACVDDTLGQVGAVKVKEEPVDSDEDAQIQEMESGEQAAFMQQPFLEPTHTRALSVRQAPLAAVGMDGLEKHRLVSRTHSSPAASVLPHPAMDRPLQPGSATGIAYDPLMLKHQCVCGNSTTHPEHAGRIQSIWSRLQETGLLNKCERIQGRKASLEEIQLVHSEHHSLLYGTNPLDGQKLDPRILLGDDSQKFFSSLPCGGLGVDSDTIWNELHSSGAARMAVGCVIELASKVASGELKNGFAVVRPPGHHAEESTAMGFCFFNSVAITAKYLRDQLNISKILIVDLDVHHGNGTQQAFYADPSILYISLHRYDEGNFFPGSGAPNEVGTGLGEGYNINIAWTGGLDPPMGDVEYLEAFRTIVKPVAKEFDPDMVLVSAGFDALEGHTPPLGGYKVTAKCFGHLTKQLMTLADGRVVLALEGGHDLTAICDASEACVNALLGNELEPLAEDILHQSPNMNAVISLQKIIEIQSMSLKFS

Histone deacetylase 2 = Histone deacetylase 2 (Homo sapiens, UniProt Q92769); experiment: Inhibition of human HDAC2 expressed in baculovirus expression system in Sf9 cells using RHKKAc (379 to 382 residues) fluorogenic peptide as substrate and measured after 2 hrs by fluorescence based analysis
Sequence of Histone deacetylase 2 (Q92769 whole entry, the tested form may be a part): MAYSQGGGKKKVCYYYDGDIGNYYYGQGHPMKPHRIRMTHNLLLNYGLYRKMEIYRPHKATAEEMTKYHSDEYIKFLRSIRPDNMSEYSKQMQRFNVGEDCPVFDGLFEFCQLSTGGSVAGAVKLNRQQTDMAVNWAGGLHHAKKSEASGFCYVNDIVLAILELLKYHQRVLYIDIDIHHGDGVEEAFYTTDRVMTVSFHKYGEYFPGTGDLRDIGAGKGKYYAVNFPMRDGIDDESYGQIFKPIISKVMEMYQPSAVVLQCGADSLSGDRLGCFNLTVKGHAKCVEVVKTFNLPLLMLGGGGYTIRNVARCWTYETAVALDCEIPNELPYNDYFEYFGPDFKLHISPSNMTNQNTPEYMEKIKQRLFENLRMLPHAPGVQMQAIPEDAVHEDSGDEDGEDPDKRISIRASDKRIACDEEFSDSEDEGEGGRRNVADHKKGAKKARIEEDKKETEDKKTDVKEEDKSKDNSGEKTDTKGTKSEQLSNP

Histone deacetylase 5 = Histone deacetylase 5 (Homo sapiens, UniProt Q9UQL6); experiment: Inhibition of human HDAC5 expressed in baculovirus expression system in Sf9 cells using Boc-Lys(trifluoroacetyl)-AMC fluorogenic peptide as substrate and measured after 2 hrs by fluorescence based analysis
Sequence of Histone deacetylase 5 (Q9UQL6 whole entry): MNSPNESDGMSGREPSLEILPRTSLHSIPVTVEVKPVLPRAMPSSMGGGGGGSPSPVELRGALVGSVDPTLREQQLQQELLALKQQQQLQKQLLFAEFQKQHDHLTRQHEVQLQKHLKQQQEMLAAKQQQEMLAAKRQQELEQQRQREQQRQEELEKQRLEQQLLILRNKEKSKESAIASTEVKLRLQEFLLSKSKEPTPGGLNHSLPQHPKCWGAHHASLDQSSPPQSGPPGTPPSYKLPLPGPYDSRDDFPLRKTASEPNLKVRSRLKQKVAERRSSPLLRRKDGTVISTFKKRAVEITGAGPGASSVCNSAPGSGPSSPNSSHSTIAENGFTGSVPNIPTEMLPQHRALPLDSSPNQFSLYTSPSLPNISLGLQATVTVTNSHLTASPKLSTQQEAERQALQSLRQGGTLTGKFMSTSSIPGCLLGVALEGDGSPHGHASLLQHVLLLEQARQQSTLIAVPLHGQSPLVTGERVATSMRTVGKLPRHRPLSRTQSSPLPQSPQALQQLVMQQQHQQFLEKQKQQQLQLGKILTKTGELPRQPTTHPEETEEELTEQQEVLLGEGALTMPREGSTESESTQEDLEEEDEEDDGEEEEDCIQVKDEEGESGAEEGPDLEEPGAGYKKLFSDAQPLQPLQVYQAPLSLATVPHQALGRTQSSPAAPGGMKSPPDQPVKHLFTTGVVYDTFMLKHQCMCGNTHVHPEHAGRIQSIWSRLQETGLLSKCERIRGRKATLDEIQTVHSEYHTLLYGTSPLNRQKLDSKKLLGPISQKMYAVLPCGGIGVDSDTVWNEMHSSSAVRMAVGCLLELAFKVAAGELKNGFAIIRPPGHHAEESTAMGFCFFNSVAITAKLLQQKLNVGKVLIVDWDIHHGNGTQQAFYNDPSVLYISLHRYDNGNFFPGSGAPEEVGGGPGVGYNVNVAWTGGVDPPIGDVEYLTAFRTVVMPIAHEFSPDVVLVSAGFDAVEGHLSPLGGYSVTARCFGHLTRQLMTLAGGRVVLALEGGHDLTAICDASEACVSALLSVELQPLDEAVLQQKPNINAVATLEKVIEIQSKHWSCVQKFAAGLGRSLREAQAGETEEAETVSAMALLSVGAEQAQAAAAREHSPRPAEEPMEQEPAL

in vitro [3] = settings: human
in vitro [4] = settings: human; remark: listed apart in the source
Histone deacetylase 8 = target: T2, Histone deacetylase 8 (Homo sapiens, UniProt Q9BY41); experiment: Inhibition of human HDAC8 expressed in baculovirus expression system in Sf9 cells using RHKAcKAc (379 to 382 residues) fluorogenic peptide as substrate and measured after 2 hrs by fluorescence based analysis
T2 sequence (Q9BY41 whole entry): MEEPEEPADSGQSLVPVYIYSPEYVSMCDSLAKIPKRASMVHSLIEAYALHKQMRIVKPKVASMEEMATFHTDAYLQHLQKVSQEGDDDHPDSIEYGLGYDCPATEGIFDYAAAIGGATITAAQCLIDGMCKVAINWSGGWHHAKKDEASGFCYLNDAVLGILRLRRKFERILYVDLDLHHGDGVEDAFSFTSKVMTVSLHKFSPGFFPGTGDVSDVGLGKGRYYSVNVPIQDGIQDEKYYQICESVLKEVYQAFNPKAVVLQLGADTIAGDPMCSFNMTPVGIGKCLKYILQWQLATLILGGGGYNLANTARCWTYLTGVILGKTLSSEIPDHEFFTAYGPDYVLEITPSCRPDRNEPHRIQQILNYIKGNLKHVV

[5] = target: T3, Protein deacetylase HDAC6 (Homo sapiens, UniProt Q9UBN7); experiment: Inhibition of human HDAC6 expressed in baculovirus expression system in Sf9 cells using RHKKAc (379 to 382 residues) fluorogenic peptide as substrate and measured after 2 hrs by fluorescence based analysis
T3 sequence (Q9UBN7 whole entry): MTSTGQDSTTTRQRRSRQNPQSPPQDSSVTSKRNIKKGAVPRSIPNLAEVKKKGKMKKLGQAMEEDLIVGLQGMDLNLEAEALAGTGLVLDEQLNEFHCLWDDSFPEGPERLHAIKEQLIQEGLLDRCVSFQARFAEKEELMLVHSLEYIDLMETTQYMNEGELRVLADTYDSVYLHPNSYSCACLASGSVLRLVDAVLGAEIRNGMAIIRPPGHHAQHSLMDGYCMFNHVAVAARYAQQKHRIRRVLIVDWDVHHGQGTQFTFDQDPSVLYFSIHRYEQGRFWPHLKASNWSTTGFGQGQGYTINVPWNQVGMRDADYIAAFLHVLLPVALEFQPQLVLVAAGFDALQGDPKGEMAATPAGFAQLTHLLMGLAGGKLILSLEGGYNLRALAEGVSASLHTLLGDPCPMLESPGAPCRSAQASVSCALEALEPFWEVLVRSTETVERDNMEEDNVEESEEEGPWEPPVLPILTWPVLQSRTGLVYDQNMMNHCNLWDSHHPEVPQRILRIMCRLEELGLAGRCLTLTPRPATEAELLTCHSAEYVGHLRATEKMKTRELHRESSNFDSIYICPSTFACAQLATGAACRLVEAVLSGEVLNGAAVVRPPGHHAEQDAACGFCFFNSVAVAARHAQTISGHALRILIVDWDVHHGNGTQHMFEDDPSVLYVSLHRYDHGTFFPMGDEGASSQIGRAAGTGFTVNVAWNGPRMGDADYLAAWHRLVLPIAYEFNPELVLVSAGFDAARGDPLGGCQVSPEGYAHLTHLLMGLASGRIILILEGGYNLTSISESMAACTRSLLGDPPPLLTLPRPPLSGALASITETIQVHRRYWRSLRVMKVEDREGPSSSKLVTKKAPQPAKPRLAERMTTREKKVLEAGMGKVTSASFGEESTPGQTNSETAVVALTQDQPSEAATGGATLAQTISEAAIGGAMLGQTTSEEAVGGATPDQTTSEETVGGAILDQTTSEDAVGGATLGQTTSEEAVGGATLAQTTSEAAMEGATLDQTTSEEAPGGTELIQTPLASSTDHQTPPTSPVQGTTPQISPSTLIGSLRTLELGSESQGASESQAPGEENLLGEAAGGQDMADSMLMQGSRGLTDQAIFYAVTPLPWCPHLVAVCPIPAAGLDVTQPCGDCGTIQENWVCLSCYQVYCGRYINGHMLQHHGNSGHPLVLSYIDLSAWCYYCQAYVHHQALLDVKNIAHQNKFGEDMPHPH

Histone deacetylase 4 = Histone deacetylase 4 (Homo sapiens, UniProt P56524); experiment: Inhibition of human HDAC4 expressed in baculovirus expression system in Sf9 cells using Boc-Lys(trifluoroacetyl)-AMC fluorogenic peptide as substrate and measured after 2 hrs by fluorescence based analysis
Sequence of Histone deacetylase 4 (P56524 whole entry, the tested form may be a part): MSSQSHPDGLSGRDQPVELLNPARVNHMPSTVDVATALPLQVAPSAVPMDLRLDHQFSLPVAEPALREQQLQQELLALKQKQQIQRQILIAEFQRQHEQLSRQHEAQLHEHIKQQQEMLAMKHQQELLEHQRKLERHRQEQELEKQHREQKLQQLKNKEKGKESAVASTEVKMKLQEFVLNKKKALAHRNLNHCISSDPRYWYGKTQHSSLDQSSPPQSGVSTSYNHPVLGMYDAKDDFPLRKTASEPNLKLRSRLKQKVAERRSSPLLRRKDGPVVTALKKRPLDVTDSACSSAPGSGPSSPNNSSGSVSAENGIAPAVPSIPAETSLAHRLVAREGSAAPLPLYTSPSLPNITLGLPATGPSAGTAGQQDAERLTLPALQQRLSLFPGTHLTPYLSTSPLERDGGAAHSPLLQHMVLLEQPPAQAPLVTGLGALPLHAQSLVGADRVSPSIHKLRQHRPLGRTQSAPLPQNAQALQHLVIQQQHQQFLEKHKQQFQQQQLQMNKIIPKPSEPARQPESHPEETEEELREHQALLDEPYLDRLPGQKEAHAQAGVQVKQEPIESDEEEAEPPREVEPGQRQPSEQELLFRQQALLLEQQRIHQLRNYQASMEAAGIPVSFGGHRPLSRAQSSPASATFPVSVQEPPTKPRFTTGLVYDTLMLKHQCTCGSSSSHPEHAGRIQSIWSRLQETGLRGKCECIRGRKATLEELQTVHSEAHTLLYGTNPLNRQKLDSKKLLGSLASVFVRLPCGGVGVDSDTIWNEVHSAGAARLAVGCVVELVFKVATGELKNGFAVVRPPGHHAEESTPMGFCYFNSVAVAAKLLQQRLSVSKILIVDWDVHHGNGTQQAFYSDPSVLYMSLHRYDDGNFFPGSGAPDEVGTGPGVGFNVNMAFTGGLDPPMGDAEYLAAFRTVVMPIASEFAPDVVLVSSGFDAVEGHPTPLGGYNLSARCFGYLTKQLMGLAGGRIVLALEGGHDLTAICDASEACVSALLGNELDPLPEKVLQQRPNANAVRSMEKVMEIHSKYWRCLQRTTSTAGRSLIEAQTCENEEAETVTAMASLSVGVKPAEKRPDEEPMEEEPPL

Histone deacetylase 3 = Histone deacetylase 3 (Homo sapiens, UniProt O15379); experiment: Inhibition of human HDAC3 expressed in baculovirus expression system in Sf9 cells using RHKKAc (379 to 382 residues) fluorogenic peptide as substrate and measured after 2 hrs by fluorescence based analysis
Sequence of Histone deacetylase 3 (O15379 whole entry, the tested form may be a part): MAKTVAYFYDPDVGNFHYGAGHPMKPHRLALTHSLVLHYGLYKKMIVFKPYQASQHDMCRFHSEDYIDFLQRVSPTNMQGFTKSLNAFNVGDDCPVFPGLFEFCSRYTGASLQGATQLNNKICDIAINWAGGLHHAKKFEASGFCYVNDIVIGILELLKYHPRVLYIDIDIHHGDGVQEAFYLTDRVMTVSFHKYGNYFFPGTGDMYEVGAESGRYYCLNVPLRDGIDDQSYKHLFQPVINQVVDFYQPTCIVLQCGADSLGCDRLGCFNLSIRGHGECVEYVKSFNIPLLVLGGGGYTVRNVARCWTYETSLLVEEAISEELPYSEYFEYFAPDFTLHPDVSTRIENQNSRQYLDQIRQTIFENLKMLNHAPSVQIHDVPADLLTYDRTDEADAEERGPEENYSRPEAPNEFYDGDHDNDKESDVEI

[6] = Antiproliferative activity against human Pulmonary fibroblast cells assessed as reduction in cell viability incubated for 3 days by CCK-8 assay; type: functional, cell-based; settings: 72 h
[7] = Antiproliferative activity against human Pulmonary fibroblast cells assessed as reduction in cell viability by measuring optimal working concentration incubated for 3 days by CCK-8 assay; type: functional; settings: time 3 day
[8] = Metabolic stability in human liver microsomes assessed as parent compound remaining at 200 uM preincubated for 5 mins followed by NADPH and measured at 60 mins by LC-MS/MS analysis
Histone deacetylase 1 = Histone deacetylase 1 (Homo sapiens, UniProt Q13547); experiment: Inhibition of human HDAC1 expressed in baculovirus expression system in Sf9 cells using RHKKAc (379 to 382 residues) fluorogenic peptide as substrate and measured after 2 hrs by fluorescence based analysis
Sequence of Histone deacetylase 1 (Q13547 whole entry, the tested form may be a part): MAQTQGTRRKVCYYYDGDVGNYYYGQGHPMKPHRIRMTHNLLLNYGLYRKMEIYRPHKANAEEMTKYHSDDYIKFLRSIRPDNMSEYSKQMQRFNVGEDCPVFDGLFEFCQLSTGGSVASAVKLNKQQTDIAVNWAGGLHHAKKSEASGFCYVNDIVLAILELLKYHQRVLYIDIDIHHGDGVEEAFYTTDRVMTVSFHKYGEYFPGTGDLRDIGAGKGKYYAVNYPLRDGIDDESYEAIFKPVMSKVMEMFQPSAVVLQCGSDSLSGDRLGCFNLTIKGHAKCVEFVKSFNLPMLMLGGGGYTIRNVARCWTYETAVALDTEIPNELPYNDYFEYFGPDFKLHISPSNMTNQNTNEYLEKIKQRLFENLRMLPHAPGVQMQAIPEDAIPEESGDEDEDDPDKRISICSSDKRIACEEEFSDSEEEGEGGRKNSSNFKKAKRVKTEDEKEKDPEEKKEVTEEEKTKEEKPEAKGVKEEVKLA

in vitro [9] = settings: human, Caco-2
Description: Apparent permeability across apical to basolateral side in human Caco-2 cells at 10 uM preincubated for 10mins followed by compound addition and measured after 90 mins by LC-MS/MS analysis

SMILES	MEC (NIH3T3 [1]) [µM]	IC50 (NIH3T3 [2]) [µM]	IC50 (Histone deacetylase 8) [µM]	IC50 [5] [µM]	IC50 (Histone deacetylase 1) [µM]	other results
CCc1nc2c(Cc3ccc(C(=O)NO)cc3)cccc2c(=O)n1CCc1ccccc1	0.4	338				
Cc1nc2cc(/C=C/C(=O)NO)ccc2c(=O)n1-c1ccccc1	20	> 40	1.55	0.062		IC50 (Histone deacetylase 11): 4.7 µM; IC50 (Histone deacetylase 9): 30 µM; IC50 (Histone deacetylase 2): 7.38 µM; IC50 (Histone deacetylase 5): 8.41 µM; half-life at 1 h, 200 µM (in vitro [3]; microsomes): > 3.11 h; CLint scaled at 1 h, 200 µM (in vitro [4]; microsomes): < 6.1 mL/min/kg; IC50 (Histone deacetylase 4): 30 µM; IC50 (Histone deacetylase 3): 1.59 µM; IC50 [6]: > 40 µM; MEC [7]: 10 µM; remaining at 1 h, 200 µM ([8]; microsomes): 89.6%
O=C(NO)c1ccc(Cn2c(=O)n(CCc3ccccc3)c(=O)c3cc(Cl)ccc32)cc1	0.81	3.79				
O=C(NO)c1ccc(Cn2c(=O)n(CCc3ccccc3)c(=O)c3ccc(C(F)(F)F)cc32)cc1	1.24	4.23				
O=C(NO)c1ccc(Cn2c(=O)n(CCc3ccccc3)c(=O)c3ccccc32)cc1	2.88	5.1			> 10	
COc1ccccc1CCn1c(=O)c2ccccc2n(Cc2ccc(C(=O)NO)cc2)c1=O		9.55				
O=C(NO)c1ccc(Cn2c(=O)[nH]c(=O)c3cc(Br)ccc32)cc1	6.05	757	0.371	0.018	4.28	
O=C(NO)c1ccc(Cn2c(=O)n(CCc3ccccc3O)c(=O)c3ccccc32)cc1	4.94	9.95				
O=C(NO)c1ccc(Cn2c(=O)[nH]c(=O)c3ccc(C(F)(F)F)cc32)cc1	4.72	16	0.302	0.058	5.18	
O=C(CCn1c(=O)n(CCc2ccccc2)c(=O)c2ccccc21)NO	1.14	7.14	0.454	0.798	> 10	
O=C(NO)c1ccc(Cn2c(=O)[nH]c(=O)c3ccc(F)cc32)cc1	2.7	15.3	0.154	0.0016	0.423	
O=C(NO)c1ccc(Cn2c(=O)[nH]c(=O)c3cc(F)ccc32)cc1		4.76	0.222	0.006	1.27	
Cc1nc2ccc(/C=C/CC(=O)NO)cc2c(=O)n1-c1ccccc1	10	> 40	3.73	0.168	17.3	half-life at 1 h, 200 µM (in vitro [3]; microsomes): > 3.11 h; CLint scaled at 1 h, 200 µM (in vitro [4]; microsomes): < 6.1 mL/min/kg; IC50 [6]: > 40 µM; MEC [7]: 10 µM; remaining at 1 h, 200 µM ([8]; microsomes): 84.3%
O=C(CCn1c(=O)n(Cc2ccccc2)c(=O)c2ccc(Cl)cc21)NO	2.9	9.12		0.047	> 10	
O=C(NO)c1ccc(Cn2c(=O)n(CCc3ccccc3)c(=O)c3ccccc32)c(F)c1	0.73	10.1	0.255	0.108	14.5	
O=C(NO)c1ccc(Cn2c(=O)[nH]c(=O)c3c(Cl)cccc32)cc1	12	23.3	0.281	0.013	3.32	
O=C(CS)Nc1ccc(Cn2c(=O)[nH]c(=O)c3cccc(Cl)c32)cc1				0.0053		
O=C(NO)c1ccc(/C=C/c2nc3ccccc3c(=O)[nH]2)cc1	2.27	5.02	0.325	0.028	16.2	Papp A→B at 1.5 h, 10 µM (in vitro [9]): 0.3 ×10⁻⁶ cm/s; half-life at 1 h, 200 µM (in vitro [3]; liver microsomes): 1.26 h; CLint scaled at 1 h, 200 µM (in vitro [4]; liver microsomes): 10.5 mL/min/kg; IC50 [6]: > 40 µM; MEC [7]: 10 µM; remaining at 1 h, 200 µM ([8]; liver microsomes): 58.1%
O=C(NO)c1cccc(Cn2c(=O)[nH]c(=O)c3cccc(Cl)c32)c1	10	> 40	0.966	5.95	> 30	
CCc1nc2ccc(/C=C/CC(=O)NO)cc2c(=O)n1-c1ccccc1	10	> 40	3.69	0.285	15.9	
Cn1c(CCC(=O)NO)nc2ccccc2c1=O			10.4	22	> 30	
N#Cc1ccc2c(=O)n(CCc3ccccc3)c(=O)n(Cc3ccc(C(=O)NO)cc3)c2c1	4.5	735	0.13			
O=C(NO)c1ccc(-c2nc3ccccc3c(=O)[nH]2)cc1	10	> 40	1.62	0.317	> 30	IC50 [6]: > 40 µM; MEC [7]: 5 µM
O=C(NO)c1ccc(Cn2c(=O)[nH]c(=O)c3cccc(Cl)c32)cc1	9.7	18.6	0.137	0.01	0.19	Papp A→B at 1.5 h, 10 µM (in vitro [9]): 1.4 ×10⁻⁶ cm/s; IC50 (Histone deacetylase 11): 0.812 µM; IC50 (Histone deacetylase 9): 0.431 µM; IC50 (Histone deacetylase 2): 0.378 µM; IC50 (Histone deacetylase 5): 0.211 µM; half-life at 1 h, 200 µM (in vitro [3]; liver microsomes): > 3.11 h; CLint scaled at 1 h, 200 µM (in vitro [4]; liver microsomes): < 6.1 mL/min/kg; IC50 (Histone deacetylase 4): 0.516 µM; IC50 (Histone deacetylase 3): 0.302 µM; IC50 [6]: 8.82 µM; MEC [7]: 10 µM; remaining at 1 h, 200 µM ([8]; liver microsomes): 100%
COc1ccc2c(c1)[C@]13CCCC[C@@H]1[C@H](C2)N(C)CC3 [DEXTROMETHORPHAN]						half-life at 1 h, 200 µM (in vitro [3]; liver microsomes): 0.582 h; CLint scaled at 1 h, 200 µM (in vitro [4]; liver microsomes): 14.3 mL/min/kg; remaining at 1 h, 200 µM ([8]; liver microsomes): 30.4%
